{
  "source": "patent US20240240155A1",
  "about": "“Organoid-Derived Monolayers and Uses Thereof” (Hub Organoids IP B.V., priority 2021, published 2024)",
  "molecules": {"B1": {"name": "IFN-γ: proinflammatory cytokine, single treatment (protein, UniProt P01579 24-161, looked up)", "Interferon gamma": "QDPYVKEAENLKKYFNAGHSDVADNGTLFLGILKNWKEESDRKIMQSQIVSFYFKLFKNFKDDQSIQKSVETIKEDMNVKFFNSNKKKRDDFEKLTNYSVTDLNVQRKAIHELIQVMAELSPAAKTGKRKRSQMLFRG"}},
  "key": {"[1]": {"test_system": "Human gastro-intestinal tract organoid-derived monolayers", "assay": "Polarisation assay: TEER and Lucifer yellow permeability after apical or basolateral treatment", "assay_type": "cell-based", "settings": "eCDM; apical, basolateral or both compartments; day 3 after seeding"}, "P-gp [2]": {"target": "T1, P-gp (Homo sapiens, UniProt P08183)", "T1 construct": "endogenous in cells; host or cells: human lung organoid-derived monolayer (donor lung-C)", "T1 sequence (P08183 whole entry)": "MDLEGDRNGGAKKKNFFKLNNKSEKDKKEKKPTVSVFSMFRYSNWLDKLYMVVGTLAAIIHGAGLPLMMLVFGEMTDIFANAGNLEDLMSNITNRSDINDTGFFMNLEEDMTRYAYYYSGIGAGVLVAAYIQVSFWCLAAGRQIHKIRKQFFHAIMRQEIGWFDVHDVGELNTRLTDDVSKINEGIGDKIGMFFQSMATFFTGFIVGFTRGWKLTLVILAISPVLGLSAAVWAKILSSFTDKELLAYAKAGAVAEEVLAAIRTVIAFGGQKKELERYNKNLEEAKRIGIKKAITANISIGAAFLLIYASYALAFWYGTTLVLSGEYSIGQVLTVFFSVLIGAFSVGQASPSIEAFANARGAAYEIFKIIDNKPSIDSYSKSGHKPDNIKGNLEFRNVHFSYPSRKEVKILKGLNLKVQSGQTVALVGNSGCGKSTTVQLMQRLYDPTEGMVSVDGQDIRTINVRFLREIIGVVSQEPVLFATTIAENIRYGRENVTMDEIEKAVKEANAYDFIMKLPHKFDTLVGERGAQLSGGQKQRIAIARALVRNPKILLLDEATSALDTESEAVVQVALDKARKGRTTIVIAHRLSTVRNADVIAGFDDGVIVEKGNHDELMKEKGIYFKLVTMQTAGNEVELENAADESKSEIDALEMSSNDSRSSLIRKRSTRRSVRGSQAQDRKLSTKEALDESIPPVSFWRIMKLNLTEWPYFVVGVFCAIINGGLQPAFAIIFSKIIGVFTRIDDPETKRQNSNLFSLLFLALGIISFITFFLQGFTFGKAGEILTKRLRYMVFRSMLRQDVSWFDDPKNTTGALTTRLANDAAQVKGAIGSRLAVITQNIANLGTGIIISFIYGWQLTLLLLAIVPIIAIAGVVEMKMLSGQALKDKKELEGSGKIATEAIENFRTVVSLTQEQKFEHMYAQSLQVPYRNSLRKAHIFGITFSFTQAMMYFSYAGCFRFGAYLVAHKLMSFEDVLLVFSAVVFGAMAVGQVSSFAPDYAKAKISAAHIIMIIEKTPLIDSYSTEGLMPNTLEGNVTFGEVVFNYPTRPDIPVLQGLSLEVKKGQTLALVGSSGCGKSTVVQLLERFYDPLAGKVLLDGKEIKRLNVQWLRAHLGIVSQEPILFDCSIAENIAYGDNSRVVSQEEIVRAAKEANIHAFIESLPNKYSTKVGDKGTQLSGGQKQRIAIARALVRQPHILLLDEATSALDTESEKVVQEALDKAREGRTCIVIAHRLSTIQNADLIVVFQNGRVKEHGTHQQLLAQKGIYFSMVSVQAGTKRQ", "assay": "Calcein transport assay, accumulation format, lung-C monolayers", "assay_type": "cell-based", "settings": "1 μM, 30 mins; LuM LLI and LuM ALI"}, "P-gp [3]": {"target": "T1, P-gp", "assay": "Calcein transport assay, pulse-chase format, lung-C monolayers", "assay_type": "cell-based", "settings": "T=2 hours"}, "P-gp [4]": {"target": "T1, P-gp", "assay": "Calcein transport assay, kidney-C monolayers", "assay_type": "cell-based", "settings": "1 μM, 30 mins; KEM or DAC conditions, day 7"}, "P-gp [5]": {"target": "T1, P-gp", "assay": "Rhodamine transport assay, kidney-C monolayers", "assay_type": "cell-based", "settings": "1 μM, 30 mins; day 7"}, "ALK5 (TGF-βR1)": {"target": "T2, ALK5 (TGF-βR1) (Homo sapiens, UniProt P36897)", "T2 sequence (P36897 34-503)": "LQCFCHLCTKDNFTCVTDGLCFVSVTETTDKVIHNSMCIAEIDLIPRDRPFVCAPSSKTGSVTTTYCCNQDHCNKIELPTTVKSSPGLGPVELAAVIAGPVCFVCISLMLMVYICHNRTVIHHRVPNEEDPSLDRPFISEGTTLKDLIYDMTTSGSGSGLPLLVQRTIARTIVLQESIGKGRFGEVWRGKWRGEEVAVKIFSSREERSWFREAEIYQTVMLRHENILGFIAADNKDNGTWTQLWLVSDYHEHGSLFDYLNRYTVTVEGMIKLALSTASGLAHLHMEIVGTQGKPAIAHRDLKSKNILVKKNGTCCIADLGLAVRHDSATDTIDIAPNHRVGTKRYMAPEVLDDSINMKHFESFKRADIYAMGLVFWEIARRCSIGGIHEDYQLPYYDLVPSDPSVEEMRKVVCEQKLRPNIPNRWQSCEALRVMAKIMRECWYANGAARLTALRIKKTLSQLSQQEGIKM", "settings": "high concentrations; cited from earlier work"}, "[6]": {"test_system": "normal colon-derived epithelium monolayers", "assay": "Cytokine-induced barrier injury with tofacitinib pre-treatment, TEER", "assay_type": "cell-based, human", "procedure": "(A) Transepithelial electrical resistance (TEER). (B) relative TEER value from the same Transwell before treatment after 5 and 24 hours. (C) Permeability and (D) Cell viability of the same Transwell after 24 hours in response to treatments. […] (E) TEER (top), permeability (middle) and cell viability (bottom) dose response curves. EC50 values were calculated by Non-linear regression log(inhibitor) versus response variable slope (four parameters) of three technical replicates.\n(A) Transepithelial electrical resistance (TEER). (B) Relative TEER values from the same Transwell before treatment after 5 and 24 hours. (C) Permeability and (D) Cell viability of the same Transwell after 24 hours in response to treatments. […] An unpaired t-test was performed on permeability and cell viability data. A one-way ANOVA (Dunett's multiple comparisons test) was done on normalized TEER, permeability and cell viability data. *P<0.05, **P<0.01, ***P<0.001.\nAt this point, the culture medium was changed to cCDM until epithelium monolayer barrier integrity further increased (TEER >1000 Ω·cm^2). […] These measurements were normalized to the TEER value of the same Transwell before measurement, to correct for well-to-well TEER variability (FIG. 7B). Paracellular permeability was measured by the Lucifer Yellow (LY) permeability assay after 24 hours (FIG. 7C). Subsequently, monolayer cell viability was measured by the ATP Luminescent Assay, CellTiter-Glo 3D, to monitor for loss of barrier function due to cell death, as opposed to increased paracellular permeability. […] (FIG. 7D)."}, "[7]": {"test_system": "normal colon-derived epithelium monolayers", "assay": "Cytokine-induced barrier injury with tofacitinib pre-treatment, Lucifer Yellow permeability assay", "assay_type": "cell-based, human"}, "[8]": {"test_system": "normal colon-derived epithelium monolayers", "assay_type": "cell-based, human", "settings": "cytokine-treated colon monolayers"}, "[9]": {"test_system": "normal ileum-derived organoid epithelium monolayers", "assay": "Cytokine-induced barrier injury with tofacitinib pre-treatment, TEER", "assay_type": "cell-based, human", "procedure": "(A) Transepithelial electrical resistance (TEER). (B) Relative TEER values from the same Transwell before treatment after 5 and 24 hours. (C) Permeability and (D) Cell viability of the same Transwell after 24 hours in response to treatments. Data are represented as mean±SD for 3 technical replicates. An unpaired t-test was performed on permeability and cell viability data. A one-way ANOVA (Dunett's multiple comparisons test) was done on normalized TEER, permeability and cell viability data. *P<0.05, **P<0.01, ***P<0.001.\nThe experimental condition above were reproduced by repeating the same experiment with same normal colon-derived epithelium monolayer and extended to normal ileum-derived organoid epithelium monolayers from the same donor, as in the previous experiment.\nTo address IFN-γ specificity in inducing barrier injury, TNF-α/IL-1α combination (data not shown) was included in addition to IFN-γ/TNF-α/IL-1α and IFN-γ/TNF-α."}, "[10]": {"test_system": "normal ileum-derived organoid epithelium monolayers", "assay": "Cytokine-induced barrier injury with tofacitinib pre-treatment, LY permeability", "assay_type": "cell-based, human", "settings": "10 μM tofacitinib, IFN-γ containing cytokine cocktails"}, "[11]": {"test_system": "IBD-PDO ileum epithelium monolayers", "assay": "Barrier function assay in IBD-PDO monolayers, TEER", "assay_type": "cell-based, human", "settings": "0.1, 2 and 10 μM pre-treatment", "procedure": "(§1) (A) Transepithelial electrical resistance (TEER). (B) relative TEER value from the same transwell before treatment after 5 and 24 hours. (C) Permeability and (D) cell viability of the same Transwell after 24 hours in response to treatments. Data represented as mean±SD for 3 technical replicates. A two-way ANOVA (Dunett's multiple comparisons test) was done on normalized TEER, all conditions were compared to the pre-treatment conditions. For permeability and cell viability data a one-way ANOVA (Dunett's multiple comparisons test) was used. ****P<0.0001; ***P<0.001; **P<0.01; *P<0.1; ns, not significant.\n(§2) IBD patient-derived organoid (IBD-PDO) monolayer cultures from ileum, proximal and distal colon were established following the same protocols used in previous experiments. […] Their barrier integrity was measured at 5 and 24 hours followed by LY permeability and cell viability performed (FIGS. 10, 11)."}, "[12]": {"test_system": "IBD-PDO ileum epithelium monolayers", "assay": "Barrier function assay in IBD-PDO monolayers, LY permeability", "assay_type": "cell-based, human", "settings": "0.1, 2 and 10 μM pre-treatment"}, "[13]": {"test_system": "IBD-PDO ileum epithelium monolayers", "assay": "Barrier function assay in IBD-PDO monolayers, cell viability", "assay_type": "cell-based, human", "settings": "0.1, 2 and 10 μM pre-treatment"}, "[14]": {"test_system": "IBD-PDO proximal colon epithelium monolayers", "assay": "Barrier function assay in IBD-PDO monolayers, TEER", "assay_type": "cell-based, human", "settings": "after 24 hours", "procedure": "as §2"}, "[15]": {"test_system": "IBD-PDO derived distal colon epithelium monolayers", "assay": "Barrier function assay in IBD-PDO monolayers, TEER", "assay_type": "cell-based, human", "settings": "highest tofacitinib concentration", "procedure": "as §1, with “(A-C)” for “(A)”, “(D-F)” for “(B)”, “Transwell” for “transwell”, “(G-I)” for “(C)”, “(J-L)” for “(D)”\nas §2"}, "[16]": {"test_system": "IBD-PDO derived distal colon epithelium monolayers", "assay": "Barrier function assay in IBD-PDO monolayers, LY permeability", "assay_type": "cell-based, human", "settings": "0.1, 2 and 10 μM pre-treatment"}, "[17]": {"test_system": "IBD-PDO derived distal colon epithelium monolayers", "assay": "Barrier function assay in IBD-PDO monolayers, cell viability", "assay_type": "cell-based, human", "settings": "0.1, 2 and 10 μM pre-treatment"}, "[18]": {"test_system": "normal colon derived epithelium monolayers", "assay": "Proinflammatory cytokine titration, barrier injury by TEER", "assay_type": "cell-based, human", "settings": "cCDM culture condition, 24 hours after cytokine addition", "source_text": "FIG. 6 illustrates inducing barrier injury to normal colon derived epithelium monolayers on 96 well transwell plates in expansion (CNM) and combination (cCDM) culture conditions by serial titration of proinflammatory cytokines. All proinflammatory cytokines were used at the final concentrations listed on the graph regardless of combination. (A)-(H) illustrate transepithelial […] (TEER) in CNM and cCDM culture conditions. Data are represented as mean±SD for 3 technical replicates. […] EC50 dose response curves were calculated by Non-linear regression log(inhibitor) versus response variable slope (four parameters).\nAs IFN-γ has major impact in inducing barrier damage via JAK-STAT signalling pathway, we titrated different combinations of three indicated proinflammatory cytokines to resolve TNF-α and IL-1α synergy in combination with IFN-γ. […] The lower sensitivity of organoid-derived epithelium monolayers cultured in CNM correlated with a lower expression of IFN-γ receptor (IFNGR1) compared to the cCDM culture condition."}},
  "data": [
    {"molecule": "COc1cc2ncnc(Nc3ccc(F)c(Cl)c3)c2cc1OCCCN1CCOCC1", "note": "[Gefitinib]", "values": [
      {"measurement": "integrity of organoid-derived epithelial monolayers (TEER, Lucifer yellow permeability)", "setting": "[1]", "result": "compromised only when Gefitinib is added to the basolateral compartment"}
    ]},
    {"molecule": "C/C=C/C[C@@H](C)C(=O)[C@H]1C(=O)N[C@@H](C(C)C)C(=O)N(C)CC(=O)N(C)[C@@H](CC(C)C)C(=O)N[C@@H](C(C)C)C(=O)N(C)[C@@H](CC(C)C)C(=O)N[C@@H](C)C(=O)N[C@H](C)C(=O)N(C)[C@@H](CC(C)C)C(=O)N(C)[C@@H](CC(C)C)C(=O)N(C)[C@@H](C(C)C)C(=O)N1C", "note": "[PSC833]", "values": [
      {"measurement": "cellular accumulation of Calcein AM", "setting": "P-gp [2]", "result": "Increased cellular accumulation of Calcein AM"},
      {"measurement": "Calcein AM accumulation or efflux", "setting": "P-gp [3]", "result": "did not show notable effects on Calcein AM accumulation or efflux"},
      {"measurement": "cellular accumulation of Calcein AM", "setting": "P-gp [4]", "result": "Increased cellular accumulation of Calcein AM"},
      {"measurement": "cellular accumulation of Rhodamine", "setting": "P-gp [5]", "result": "Increased cellular accumulation of Rhodamine"}
    ]},
    {"molecule": "C[S+]([O-])c1ccc(-c2nc(-c3ccc(F)cc3)c(-c3ccncc3)[nH]2)cc1", "note": "(centres unmarked) [SB-203580]", "values": [
      {"measurement": "concentration at which it is thought to inhibit ALK5", "setting": "ALK5 (TGF-βR1)", "result": "≥ 10", "unit": "µM"}
    ]},
    {"molecule": "C[C@@H]1CCN(C(=O)CC#N)C[C@@H]1N(C)c1ncnc2[nH]ccc12", "note": "[tofacitinib]", "values": [
      {"measurement": "pre-treatment concentration that maintained barrier function integrity", "setting": "[6]; both cytokine combinations, TEER", "result": "above 3 μM"},
      {"measurement": "tofacitinib pre-treatment concentration that protected monolayers", "setting": "[6]; colon", "result": 2, "unit": "µM"},
      {"measurement": "inhibition of TNF-α/IL-1α induced barrier function injury", "setting": "[6]; highest tofacitinib concentration used", "result": "not inhibited by highest tofacitinib concentration used"},
      {"measurement": "protection from cytokine induced barrier injury", "setting": "[6]; tofacitinib 0.1 μM pre-treatment", "result": "partially protected"},
      {"measurement": "protection from cytokine induced barrier injury", "setting": "[6]; tofacitinib 2 μM pre-treatment", "result": "completely"},
      {"measurement": "EC50", "setting": "[7]; Homo sapiens, read-out: Permeability (EC50 of tofacitinib dose response, FIG. 7E), IFN-γ/TNF-α/IL-1α 1 ng/mL", "result": 316, "unit": "nM"},
      {"measurement": "concentration at which apparent permeability of LY was reduced", "setting": "[7]; cytokine-treated colon monolayers", "result": "above 3 μM"},
      {"measurement": "pre-treatment concentration that prevented cytokine induced cell death", "setting": "[8]", "result": "above 3 μM"},
      {"measurement": "tofacitinib pre-treatment concentration that protected monolayers", "setting": "[9]", "result": 10, "unit": "µM"},
      {"measurement": "LY permeability after pre-treatment", "setting": "[10]", "result": "became impermeable again"},
      {"measurement": "inhibition of IFN-γ/TNF-α/IL-1α and IFN-γ/TNF-α barrier injury (TEER)", "setting": "[11]", "result": "inhibited by tofacitinib pre-treatment in a dose response manner"},
      {"measurement": "inhibition of cytokine-compromised LY permeability", "setting": "[12]", "result": "inhibited by tofacitinib in a dose responsive manner"},
      {"measurement": "inhibition of cytokine-compromised cell viability", "setting": "[13]", "result": "inhibited by tofacitinib in a dose responsive manner"},
      {"measurement": "pre-treatment concentration with which barrier integrity damage was completely restored", "setting": "[14]", "result": "higher than 0.1 μM"},
      {"measurement": "effect on TNF-α/IL-1α reduced barrier function integrity", "setting": "[15]", "result": "not inhibited or restored with highest tofacitinib concentration"},
      {"measurement": "inhibition of induced damage (TEER)", "setting": "[15]; 5 hours", "result": "not completely inhibited even with highest tofacitinib concentration"},
      {"measurement": "restoration of induced damage (TEER)", "setting": "[15]; 24 hours", "result": "restored after 24 hours"},
      {"measurement": "inhibition of cytokine-compromised LY permeability", "setting": "[16]", "result": "inhibited by tofacitinib in a dose responsive manner"},
      {"measurement": "inhibition of cytokine-compromised cell viability", "setting": "[17]", "result": "inhibited by tofacitinib in a dose responsive manner"}
    ]},
    {"molecule": "B1", "values": [
      {"measurement": "EC50 calculated from EC50 dose response curves (TEER)", "setting": "[18]", "result": 3.71}
    ]}
  ]
}
